# Assay results from patent publication US20050182025A1, “Amidinylphenyl compounds and their use as fungicides” (priority 2002, published 2005).
# Columns and labels:
# Assay type in all cases: in vivo
# [1] = test system: Erysiphe graminis f. sp. tritici; assay: Test A: preventive spray on wheat seedlings, wheat powdery mildew, disease rating; conditions: wheat seedlings sprayed to run-off, inoculated the following day with Erysiphe graminis f. sp. tritici, rated after 7 days at 20° C.; test concentration not given
# Outline: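 Wheat seedlings sprayed to run-off with compound suspension (200 ppm ≈ 500 g/ha) in acetone/water with surfactant, inoculated next day with Erysiphe graminis f. sp. tritici spores. After 7 days at 20 °C, disease rated 0–100 as % control relative to untreated plants.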
# [2] = test system: Puccinia recondita; assay: Test B: preventive spray on wheat seedlings, wheat leaf rust, disease rating; conditions: wheat seedlings sprayed to run-off, inoculated the following day with Puccinia recondita, 24 h saturated atmosphere then 6 days at 20° C.; test concentration not given
# Outline: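 Compound suspended in acetone/water (50/50) with 250 ppm Trem 014 surfactant, sprayed to run-off on wheat seedlings (200 ppm ≈ 500 g/ha); P. recondita spores inoculated next day. Plants held 24 h saturated at 20° C, then 6 days at 20° C; disease rated as % control relative to untreated (100 = full control).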
# [3] = test system: Septoria nodorum; assay: Test C: preventive spray on wheat seedlings, Septoria glume blotch, disease rating; conditions: wheat seedlings sprayed to run-off, inoculated the following day with Septoria nodorum, 48 h saturated atmosphere then 9 days at 20° C.; test concentration not given
# Outline: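 Wheat seedlings were sprayed to run-off with compound suspensions in acetone/water containing 250 ppm Trem 014 (200 ppm equals 500 g/ha), then inoculated with Septoria nodorum spores next day. Plants were held 48 h saturated at 20° C., then 9 days at 20° C. Disease control was rated 0–100 relative to controls.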
SMILES,"Test A disease control rating (100 = 100% disease control, 0 = no disease control relative to the controls) [1] [%]","Test B disease control rating (100 = 100% disease control, 0 = no disease control relative to the controls) [2] [%]","Test C disease control rating (100 = 100% disease control, 0 = no disease control relative to the controls) [3] [%]"
CCCN(C)C(=S)Nc1cc(C(C)C)c(OCCC[Si](C)(C)C)cc1C [compound 93],99,100,99
CCN(CC)C(=S)Nc1cc(C)c(OCCCC(C)C)cc1C [compound 108],87,89,96
Cc1cc(OCCC[Si](C)(C)C)c(C(C)C)cc1NC(=S)N(C)C(C)C [compound 92],100,100,100
CCCCCCCCCOc1cc(C)c(N=CN(C)C)cc1C [Compound 23],97,98,13
CCN(C)C=Nc1cc(C)c(OCCCC(C)(C)C)cc1C [compound 199],100,100,100
Cc1cc(OCCC(C)CC(C)(C)C)c(C)cc1N=CN(C)C (stereo not drawn) [Compound 11],97,100,100
CCN(C)C(=S)Nc1cc(Cl)c(OCCCC(C)C)c(Cl)c1C [compound 118],99,100,78
CCCCCC(CCCCC)Oc1cc(C)c(N=C(C)N(C)C)cc1C [compound 99],0,9,0
Cc1cc(OCCCCC(C)C)c(C)cc1N=CN(C)C [Compound 48],99,100,96
CCCC(CCC(C)C)Oc1cc(C)c(N=CN(C)C)cc1C (stereo not drawn) [Compound 33],95,100,0
CC(C)=CCC[C@H](C)CCOc1cc(C)c(N=CN(C)C)cc1C [Compound 14],90,100,0
CC[Si](C)(C)CCCOc1cc(C)c(N=CN(C)C2CC2)cc1Cl [compound 65],100,100,96
CCOC(C)(C)CCCOc1cc(C)c(N=CN(C)C)cc1C [Compound 44],99,100,99
CCCCCCOc1cc(C)c(N=CN(C)C)cc1C [Compound 20],96,100,99
"CC(C)=CCOc1cc(C)c(N=CN(C)C)cc1C [Compound 1, N′-[2,5-Dimethyl-4-[(3-methyl-2-butenyl)-oxy]phenyl]-N,N-dimethylmethanimidamide]",32,100,92
CCN(C)C=Nc1cc(F)c(OCCC[Si](C)(C)C)cc1C [compound 59],100,100,100
CCN(C)C(=S)Nc1cc(Cl)c(OCCC[Si](C)(C)C)cc1C [compound 169],99,100,100
Cc1cc(OCCCCCCl)c(C)cc1N=CN(C)C [Compound 17],92,100,100
Cc1cc(OCCC[Si](C)(C)C)c(C)cc1NC(=S)N(C)C [compound 167],99,99,100
CC(=Nc1cc(C)c(OCCC(C)CC(C)(C)C)cc1C)N(C)C (stereo not drawn) [compound 98],0,60,94
CCN(CC)C(=S)Nc1cc(Cl)c(OCCCC(C)(C)C)cc1C [compound 177],96,100,100
Cc1cc(OCCCO[Si](C)(C)C(C)(C)C)c(C)cc1N=CN(C)C [Compound 27],99,100,100
CCCCC(CCC)Sc1cc(C)c(N=CN(C)C)cc1C (stereo not drawn) [compound 160],0,55,0
CCN(C)C(=S)Nc1cc(Cl)c(OCCCC(C)(C)C)cc1Cl [compound 187],100,99,78
CC(=Nc1cc(Cl)c(OCCCC(C)C)cc1C)N(C)C [compound 111],99,100,100
CCN(C)C(=S)Nc1cc(Cl)c(OCCCC(C)(C)C)c(Cl)c1C [compound 122],99,100,0
CCN(C)C=Nc1cc(Cl)c(OCCC[Si](C)(C)C)cc1C [compound 54],100,100,100
Cc1cc(NC(CCC(C)C)CCC(C)C)c(C)cc1N=CN(C)C [compound 151],0,0,60
